Test results: patent publication US10894798B2, “Substituted dihydropyrrolopyrazole derivative” (UBE INDUSTRIES, LTD., priority 2015, dated 2021)

Columns and labels:
[1] = tested on: prostate cancer cell line DU145; experiment: Various human cancer cell growth inhibition test: DU145; assay type: cell-based; settings: DU 145, ATPlite, read-out: GI50 value (concentration necessary for inhibiting 50% of cell growth)
Text: (§1) A breast cancer cell line BT-549 (obtained from American Type Culture Collection (ATCC)), a uterus cancer cell line C-33A (obtained from ATCC), an ovary cancer cell line PA-1 (obtained from ATCC), a large-cell lung cancer cell line NCI-H460 (obtained from ATCC), a small-cell lung cancer cell line NCI-H82 (obtained from ATCC), a kidney cancer cell line ACHN (obtained from ATCC), a pancreatic cancer cell line BxPC-3 (obtained from ATCC), a malignant melanoma cell line A375 (obtained from ATCC), a throat cancer cell line FaDu (obtained from ATCC), a medulloblastoma cell line Daoy (obtained from ATCC), a cutaneous epithelioid sarcoma cell line VA-ES-BJ (obtained from ATCC), a rhabdomyosarcoma cell line A-204 (obtained from ATCC), a prostate cancer cell line DU145 (obtained from ATCC), a bladder cancer cell line T24 (obtained from ATCC), a lymphoma cell line SR (obtained from ATCC), a neuroblastoma cell line SH-SY5Y (obtained from DS Pharma Biomedical Co., Ltd.), a liver cancer cell line HepG2 (obtained from DS Pharma Biomedical Co., Ltd.), a stomach cancer cell line HGC-27 (obtained from DS Pharma Biomedical Co., Ltd.), and a multiple myeloma cell line NCI-H929 (obtained from DS Pharma Biomedical Co., Ltd.) were used as human cancer cell lines.
(§2) Each cell line was cultured in a cell culture medium recommended by ATCC or DS Pharma Biomedical Co., Ltd. and inoculated at 0.3 to 5.0×10^3 cells/well to a 96-well plate. The cells were cultured overnight in a carbon dioxide incubator of 37° C. containing 5% carbon dioxide. The medium was replaced with a fresh medium on the next day, then replaced with a mixed solution of a DMSO solution of a test compound with varying concentrations and a culture medium (final DMSO concentration: 0.1%), and left standing in a carbon dioxide incubator (day 0). IV-361, IV-379, IV-3, IV-215, IV-299, IV-669, IV-1049, and palbociclib (for comparison) were used as test compounds. For a control group, DMSO was added instead of the DMSO solution of the test compound to a cell culture medium (final DMSO concentration: 0.1%).
(§3) After culture for a predetermined period, the ATP activity of BT-549, C-33A, PA-1, NCI-H460, NCI-H82, ACHN, BxPC-3, A375, FaDu, Daoy, VA-ES-BJ, A-204, DU145, T24, and SR was measured by using ATPlite (manufactured by PerkinElmer, Inc.). The ATP activity of SH-SY5Y, HepG2, HGC-27, and NCI-H929 was measured by using CellTiter-Glo (manufactured by Promega Corp.).
(§4) The rate of inhibition of cell growth (%) was calculated according to the expression given below. Specifically, in the case where the difference between the ATP activity before culture (day 0) and the ATP activity after culture in the test compound-administered group is the same as the difference between the ATP activity before culture (day 0) and the ATP activity after culture in the control group, the rate of inhibition of cell growth is 0%. Rate of inhibition of cell growth=(1−((ATP activity of the test compound-administered group after culture)−(ATP activity of the test compound-administered group on day 0))/((ATP activity of the control group after culture)−(ATP activity of the control group on day 0)))×100
(§5) The concentration of the test compound necessary for inhibiting 50% of cell growth (GI50 value) was calculated by using EXSUS (version 8.1.0, manufactured by CAC Exicare Corp.).

[2] = tested on: malignant melanoma cell line A375; experiment: Various human cancer cell growth inhibition test: A375; assay type: cell-based; settings: A-375, ATPlite, read-out: GI50 value (concentration necessary for inhibiting 50% of cell growth)
Text: as §1, §2, §3, §4, §5

[3] = tested on: rhabdomyosarcoma cell line A-204; experiment: Various human cancer cell growth inhibition test: A-204; assay type: cell-based; settings: A204, ATPlite, read-out: GI50 value (concentration necessary for inhibiting 50% of cell growth)
Text: as §1, §2, §3, §4, §5

[4] = tested on: multiple myeloma cell line NCI-H929; experiment: Various human cancer cell growth inhibition test: NCI-H929; assay type: cell-based; settings: CellTiter-Glo, read-out: GI50 value (concentration necessary for inhibiting 50% of cell growth)
Text: as §1, §2, §3, §4, §5

[5] = tested on: mouse imiquimod-induced psoriasis model; experiment: Ear thickening suppression test using mouse imiquimod-induced psoriasis model; assay type: in vivo; settings: topical, application of a 0.01% solution in methanol, female BALB/c mice, read-out: rate of inhibition of increase in ear thickness
Description: An imiquimod-induced psoriasis model test was carried out by modifying the method of Leslie van der Fits et al. (J. Immunol. 182, 5836 (2009)).
Female BALB/c mice (supplied by Charles River Laboratories Japan, Inc.) were used as laboratory animals. On the start day of the test, the thicknesses of the right auricles of the mice were measured with a thickness gauge (manufactured by TECLOCK Corp.). A test compound or a solvent was applied or orally administered thereto, and after a certain time, a certain amount of Beselna Cream 5% (containing 5% imiquimod, manufactured by Mochida Pharmaceutical Co., Ltd.) was applied to the insides of the right auricles. The test compound or solvent application or oral administration and the imiquimod application were carried out for a certain period, and the thicknesses of the right auricles were measured again on the final day. The thicknesses of the right auricles were compared between the solvent-administered group and the test compound group, and the rate of inhibition was calculated.

[6] = tested on: Human keratinocytes (NHEK-Neo Pooled); experiment: Human keratinocyte growth inhibition assay; assay type: cell-based; settings: 48 h, culture for 2 days, Cell Counting Kit-8
Description: The measurement of a human keratinocyte growth inhibitory effect was carried out by modifying the method of Schafer et al. (British Journal of Pharmacology, 159, 842 (2011)).
Human keratinocytes (NHEK-Neo Pooled, manufactured by Lonza Group AG) were cultured in KGM-Gold keratinocyte growth medium Bullet Kit (manufactured by Lonza Group AG) and inoculated at 2×10^3 cells/well to a 96-well plate. After overnight culture in a carbon dioxide incubator, a test compound dissolved in DMSO (final DMSO concentration: 0.1%) was added thereto and left standing in a carbon dioxide incubator. After culture for 2 days, the absorbance thereof was measured by using Cell Counting Kit-8 (manufactured by Dojindo Laboratories).
as §5, with “The rate of inhibition of cell growth at each concentration was calculated from the test compound concentration and the absorbance of Cell Counting Kit-8, and the” for “The”

| SMILES | GI50 [1] | GI50 [2] | GI50 [3] | GI50 [4] | inhibition in vivo at 0.01 % [5] | GI50 [6] |
| --- | --- | --- | --- | --- | --- | --- |
| Cc1cccc(F)c1NC(=O)N1Cc2c(NC(=O)C3([Si](C)(C)C)CCC3)n[nH]c2C1(C)C [IV-129, N-(2-Fluoro-6-methylphenyl)-6,6-dimethyl-3-[1-(trimethylsilyl)cyclobutanecarboxamido]-4,6-dihydropyrrolo[3,4-c]pyrazole-5 (1H)-carboxamide] |  |  |  |  | ≥ 50% | ≤ 500 nM |
| CCc1cccc(F)c1NC(=O)N1Cc2c(NC(=O)C3([Si](C)(C)C)CCC3)n[nH]c2C1(C)C [IV-137, N-(2-Ethyl-6-fluorophenyl)-6,6-dimethyl-3-[1-(trimethylsilyl)cyclobutanecarboxamido]-4,6-dihydropyrrolo[3,4-c]pyrazole-5(1H)-carboxamide] |  |  |  |  | ≥ 50% |  |
| CC1(C)c2[nH]nc(NC(=O)C3([Si](C)(C)C)CCC3)c2CN1C(=O)Nc1c(F)cccc1OC(F)F [IV-169, N-[2-(Difluoromethoxy)-6-fluorophenyl]-6,6-dimethyl-3-[1-(trimethylsilyl)cyclobutanecarboxamido]-4,6-dihydropyrrolo[3,4-c]pyrazole-5(1H)-carboxamide] |  |  |  |  | ≥ 50% |  |
| CC1(C)c2[nH]nc(NC(=O)C3([Si](C)(C)C)CCC3)c2CN1C(=O)Nc1c(Cl)cccc1Cl [IV-199, N-(2,6-Dichlorophenyl)-6,6-dimethyl-3-[1-(trimethylsilyl)cyclobutanecarboxamido]-4,6-dihydropyrrolo[3,4-c]pyrazole-5(1H)-carboxamide] |  |  |  |  | ≥ 50% |  |
| COc1cccc(Cl)c1NC(=O)N1Cc2c(NC(=O)C3([Si](C)(C)C)CCC3)n[nH]c2C1(C)C [IV-247, N-(2-Chloro-6-methoxyphenyl)-6,6-dimethyl-3-[1-(trimethylsilyl)cyclobutanecarboxamido]-4,6-dihydropyrrolo[3,4-c]pyrazole-5(1H)-carboxamide] |  |  |  |  | ≥ 50% | ≤ 500 nM |
| CCc1cccc(C)c1NC(=O)N1Cc2c(NC(=O)C3([Si](C)(C)C)CCC3)n[nH]c2C1(C)C [IV-389, N-(2-Ethyl-6-methylphenyl)-6,6-dimethyl-3-[1-(trimethylsilyl)cyclobutanecarboxamido]-4,6-dihydropyrrolo[3,4-c]pyrazole-5 (1H)-carboxamide] |  |  |  |  | ≥ 50% |  |
| CC1(C)c2[nH]nc(NC(=O)C3([Si](C)(C)C)CCC3)c2CN1C(=O)Nc1c(F)ccc2ccoc12 [IV-1049, N-(6-Fluorobenzofuran-7-yl)-6,6-dimethyl-3-[1-(trimethylsilyl)cyclobutanecarboxamido]-4,6-dihydropyrrolo[3,4-c]pyrazole-5 (1H)-carboxamide] | < 300 nM | < 300 nM | < 300 nM | < 300 nM |  |  |

Second part, led by results:

| GI50 [1] | GI50 [2] | GI50 [3] | GI50 [4] | SMILES | inhibition in vivo at 0.01 % [5] | GI50 [6] |
| --- | --- | --- | --- | --- | --- | --- |
| < 300 nM | < 300 nM | < 300 nM | < 300 nM | CC1(C)c2[nH]nc(NC(=O)C3([Si](C)(C)C)CCC3)c2CN1C(=O)Nc1ccccc1F [IV-3, N-(2-Fluorophenyl)-6,6-dimethyl-3-[1-(trimethylsilyl)cyclobutanecarboxamido]-4,6-dihydropyrrolo[3,4-c]pyrazole-5(1H)-carboxamide] |  |  |
| < 300 nM | < 300 nM | < 300 nM | < 300 nM | Cc1cccc(Cl)c1NC(=O)N1Cc2c(NC(=O)C3([Si](C)(C)C)CCC3)n[nH]c2C1(C)C [IV-215, N-(2-Chloro-6-methylphenyl)-6,6-dimethyl-3-[1-(trimethylsilyl)cyclobutanecarboxamido]-4,6-dihydropyrrolo[3,4-c]pyrazole-5 (1H)-carboxamide] | ≥ 50% | ≤ 500 nM |
| < 300 nM | < 300 nM | < 300 nM | < 300 nM | Cc1cccc(Br)c1NC(=O)N1Cc2c(NC(=O)C3([Si](C)(C)C)CCC3)n[nH]c2C1(C)C [IV-299, N-(2-Bromo-6-methylphenyl)-6,6-dimethyl-3-[1-(trimethylsilyl)cyclobutanecarboxamido]-4,6-dihydropyrrolo[3,4-c]pyrazole-5 (1H)-carboxamide] | ≥ 50% |  |
| < 300 nM | < 300 nM | < 300 nM | < 300 nM | Cc1ccc(F)cc1NC(=O)N1Cc2c(NC(=O)C3([Si](C)(C)C)CCC3)n[nH]c2C1(C)C [IV-361, N-(5-Fluoro-2-methylphenyl)-6,6-dimethyl-3-[1-(trimethylsilyl)cyclobutanecarboxamido]-4,6-dihydropyrrolo[3,4-c]pyrazole-5 (1H)-carboxamide] |  | ≤ 500 nM |
| < 300 nM | < 300 nM | < 300 nM | < 300 nM | Cc1ccc(C)c(NC(=O)N2Cc3c(NC(=O)C4([Si](C)(C)C)CCC4)n[nH]c3C2(C)C)c1 [IV-379, N-(2,5-Dimethylphenyl)-6,6-dimethyl-3-[1-(trimethylsilyl)cyclobutanecarboxamido]-4,6-dihydropyrrolo[3,4-c]pyrazole-5(1H)-carboxamide] |  | ≤ 500 nM |
| < 300 nM | < 300 nM | < 300 nM | < 300 nM | Cc1ccc(C)c(NC(=O)N2Cc3c(NC(=O)C4([Si](C)(C)C)CCC4)n[nH]c3C2(C)C)c1F [IV-669, N-(2-Fluoro-3,6-dimethylphenyl)-6,6-dimethyl-3-[1-(trimethylsilyl)cyclobutanecarboxamido]-4,6-dihydropyrrolo[3,4-c]pyrazole-5(1H)-carboxamide] |  |  |
